Measurements reported in patent US20220378706A1, “PHARMACEUTICAL COMPOSITION COMPRISING PDE9 INHIBITOR” (Eisai R&D Management Co., Ltd., priority 2017, published 2022).
Read-outs that look alike come from different tables or passages of the source.

Experiment: Single dose clinical study: plasma Compound A pharmacokinetics
Type: in vivo, human
Details: human, plasma
Protocol: This was a single center, single dose, randomized, double blind, placebo controlled study in healthy subjects. It consisted of 4 parts: Parts A, B, C, and D. Each of the four study parts had 2 phases: Prerandomization Phase and Randomization Phase. The Prerandomization Phase lasted up to 30 days and consisted of a Screening Period and a Baseline Period, during which each subject's study eligibility was determined and baseline assessments were performed.
In Part A, there were 8 sequential cohorts of healthy adult subjects (18-50 years of age). Subjects were randomly assigned to Compound A or placebo in a ratio of 6:2, respectively. Subjects in the Compound A cohorts were treated with single ascending doses of 10, 25, 50, 100, 200, 400, 800, or 1200 mg.
In Part B, there were 4 cohorts of healthy adult subjects (18-50 years of age). There were 8 subjects in Cohort 1, with 6 subjects randomly assigned to receive single doses of Compound A (400 mg) and 2 subjects randomly assigned to receive placebo. There were 7 subjects in Cohort 2 and Cohort 3, each with 6 subjects randomly assigned to receive single doses of Compound A (100 and 200 mg, respectively) and 1 subject randomly assigned to receive placebo. The dose of 100 mg selected in Cohort 2 was based on preliminary analysis of Cohort 1 data; this dose was predicted from PK/PD modeling to achieve a sustained CSF cGMP increase from baseline of approximately 200% when administered to steady state, and thereby provided a potentially therapeutic dose for further evaluation in future studies. There were 7 subjects in Cohort 4, with 6 subjects randomly assigned to receive a single dose of Compound A (50 mg [n=3] or 75 mg [n=3]) and 1 subject randomly assigned to receive placebo. The doses for Cohorts 3 and 4 were selected based on PK/PD modeling of the data in Cohorts 1 and 2.
Subjects in Cohort 2 who had received Compound A 100 mg or placebo under fasted conditions (1st Treatment Period) also participated in an evaluation of food effect on the PK of Compound A (2nd Treatment Period). After a washout period of at least 13 days (or 5 half-lives of Compound A, whichever was longer), subjects were admitted to the clinic for baseline assessments (2nd Baseline Period) and then received a single dose of the same treatment (Compound A 100 mg or placebo) after consuming a high fat and high calorie meal over 30 minutes. Blood PK samples were collected at prespecified time points. Safety evaluations were also assessed. CSF was not collected for PD evaluation during the 2nd Treatment Period. A Follow Up Visit occurred on Day 10 of Treatment Period 2.
In Part C, there was 1 cohort of 8 healthy elderly subjects (65 to 85 years of age) randomly assigned to receive a single dose of Compound A 100 mg or placebo in a ratio of 6:2, respectively.
In Part D, 3 cohorts of healthy adult Japanese subjects were randomized in parallel. There were 7 subjects in each cohort and subjects were randomly assigned to receive single doses of Compound A (25, 100, or 400 mg) or placebo in a ratio of 6:1, respectively.
Blood samples for determination of plasma Compound A concentrations were collected from predose to 216 hours postdose. On Day 1, blood PK samples were collected at predose and postdose 0.5 (30 minutes), 1, 1.5, 2, 3, 4, 5, 6, 8, 12, and 18 hours. Thereafter, samples were collected on Day 2 (24 and 36 hours postdose), Day 3 (48 hours postdose), Day 4 (72 hours postdose), Day 5 (96 hours postdose), Day 6 (120 hours postdose), Day 7 (144 hours postdose), and Day 10 (216 hours postdose).
Blood samples for determination of plasma Compound A concentrations were collected from predose to 216 hours postdose. For all cohorts, blood PK samples were collected on Day 1 at predose and postdose at 0.5 (30 minutes), 1, 1.5, 2, 3, 4, 5, 6, 8, 10, 12, and 18 hours. […]

COc1ncc(C)c(-c2ccc3c(c2)[nH]c(=O)c2cnn([C@H]4CCOC4)c23)c1C [Compound A, (S)-7-(2-methoxy-3,5-dimethylpyridin-4-yl)-1-(tetrahydrofuran-3-yl)-1H-pyrazolo[4,3-c]quin olin-4(5H)-one]
Cmax (oral, 400 mg, non-Japanese, 400 mg, with weight as covariate, read-out: Cmax Geometric LS Means Reference): 833 ng/mL | AUC (oral, 400 mg, non-Japanese, 400 mg, without weight as covariate, read-out: AUC(O-inf) Geometric LS Means Reference): 35800 ng·h/mL | Cmax (oral, 400 mg, non-Japanese, 400 mg, without weight as covariate, read-out: Cmax Geometric LS Means Reference): 827 ng/mL | half-life (oral, single doses of 10 to 1200 mg, read-out: Mean t1/2 across all doses): 26.8 to 33.6 h | Tmax (oral, single doses of 10 to 1200 mg, read-out: median plasma tmax across all doses): 2 to 4 h | AUC(0-t) (po, 10 mg, healthy adults (Parts A,B), single oral 10 mg, fasted, read-out: AUC(0-24 h) GM): 719 ng·h/mL | AUC(0-t) (po, 10 mg, healthy adults (Parts A,B), single oral 10 mg, fasted, read-out: AUC(0-30 h) GM): 863 ng·h/mL | AUC(0-t) (po, 10 mg, healthy adults (Parts A,B), single oral 10 mg, fasted, read-out: AUC(0-72 h) GM): 1430 ng·h/mL | AUC(0-inf) (po, 10 mg, healthy adults (Parts A,B), single oral 10 mg, fasted, read-out: AUC(0-inf) GM): 1840 ng·h/mL | AUC(0-t) (po, 10 mg, healthy adults (Parts A,B), single oral 10 mg, fasted, read-out: AUC(0-t) GM): 1700 ng·h/mL | Cmax (po, 10 mg, healthy adults (Parts A,B), single oral 10 mg, fasted, read-out: Cmax GM): 60.2 ng/mL | Vd/F (po, 10 mg, healthy adults (Parts A,B), single oral 10 mg, fasted, read-out: Vz/F GM): 255 L | half-life (po, 10 mg, healthy adults (Parts A,B), single oral 10 mg, fasted, read-out: t1/2 Mean (converted)): 33.6 h | Tmax (po, 10 mg, healthy adults (Parts A,B), single oral 10 mg, fasted, read-out: tmax Median): 2.27 h | AUC(0-inf) (po, 25 mg, Japanese Subjects (Part D), single oral 25 mg, read-out: AUC(0-inf) GM): 4580 ng·h/mL | Cmax (po, 25 mg, Japanese Subjects (Part D), single oral 25 mg, read-out: Cmax GM (% CV)): 212 ng/mL | Vd/F (po, 25 mg, Japanese Subjects (Part D), single oral 25 mg, read-out: Vz/F GM (% CV)): 165 L | half-life (po, 25 mg, Japanese Subjects (Part D), single oral 25 mg, read-out: t1/2 Mean (SD) (converted)): 21.5 h | Tmax (po, 25 mg, Japanese Subjects (Part D), single oral 25 mg, read-out: tmax Median): 2.08 h | AUC(0-inf) (po, 25 mg, Non-Japanese Subjects (Parts A,B), single oral 25 mg, read-out: AUC(0-inf) GM): 4340 ng·h/mL | Cmax (po, 25 mg, Non-Japanese Subjects (Parts A,B), single oral 25 mg, read-out: Cmax GM (% CV)): 152 ng/mL | Vd/F (po, 25 mg, Non-Japanese Subjects (Parts A,B), single oral 25 mg, read-out: Vz/F GM (% CV)): 216 L | half-life (po, 25 mg, Non-Japanese Subjects (Parts A,B), single oral 25 mg, read-out: t1/2 Mean (SD) (converted)): 26.8 h | Tmax (po, 25 mg, Non-Japanese Subjects (Parts A,B), single oral 25 mg, read-out: tmax Median): 2.65 h | AUC(0-t) (po, 25 mg, healthy adults (Parts A,B), single oral 25 mg, fasted, read-out: AUC(0-24 h) GM): 1850 ng·h/mL | AUC(0-t) (po, 25 mg, healthy adults (Parts A,B), single oral 25 mg, fasted, read-out: AUC(0-30 h) GM): 2200 ng·h/mL | AUC(0-t) (po, 25 mg, healthy adults (Parts A,B), single oral 25 mg, fasted, read-out: AUC(0-72 h) GM): 3570 ng·h/mL | AUC(0-inf) (po, 25 mg, healthy adults (Parts A,B), single oral 25 mg, fasted, read-out: AUC(0-inf) GM): 4340 ng·h/mL | AUC(0-t) (po, 25 mg, healthy adults (Parts A,B), single oral 25 mg, fasted, read-out: AUC(0-t) GM): 4200 ng·h/mL | Cmax (po, 25 mg, healthy adults (Parts A,B), single oral 25 mg, fasted, read-out: Cmax GM): 152 ng/mL | Vd/F (po, 25 mg, healthy adults (Parts A,B), single oral 25 mg, fasted, read-out: Vz/F GM): 216 L | half-life (po, 25 mg, healthy adults (Parts A,B), single oral 25 mg, fasted, read-out: t1/2 Mean (converted)): 26.8 h | Tmax (po, 25 mg, healthy adults (Parts A,B), single oral 25 mg, fasted, read-out: tmax Median): 2.65 h | AUC(0-t) (po, 50 mg, healthy adults (Parts A,B), single oral 50 mg, fasted, read-out: AUC(0-24 h) GM): 3370 ng·h/mL | AUC(0-t) (po, 50 mg, healthy adults (Parts A,B), single oral 50 mg, fasted, read-out: AUC(0-30 h) GM): 4010 ng·h/mL | AUC(0-t) (po, 50 mg, healthy adults (Parts A,B), single oral 50 mg, fasted, read-out: AUC(0-72 h) GM): 6490 ng·h/mL | AUC(0-inf) (po, 50 mg, healthy adults (Parts A,B), single oral 50 mg, fasted, read-out: AUC(0-inf) GM): 7900 ng·h/mL | AUC(0-t) (po, 50 mg, healthy adults (Parts A,B), single oral 50 mg, fasted, read-out: AUC(0-t) GM): 7720 ng·h/mL | Cmax (po, 50 mg, healthy adults (Parts A,B), single oral 50 mg, fasted, read-out: Cmax GM): 225 ng/mL | Vd/F (po, 50 mg, healthy adults (Parts A,B), single oral 50 mg, fasted, read-out: Vz/F GM): 233 L | half-life (po, 50 mg, healthy adults (Parts A,B), single oral 50 mg, fasted, read-out: t1/2 Mean (converted)): 26.9 h | Tmax (po, 50 mg, healthy adults (Parts A,B), single oral 50 mg, fasted, read-out: tmax Median): 4 h | AUC(0-t) (po, 75 mg, healthy adults (Parts A,B), single oral 75 mg, fasted, read-out: AUC(0-24 h) GM): 3650 ng·h/mL | AUC(0-t) (po, 75 mg, healthy adults (Parts A,B), single oral 75 mg, fasted, read-out: AUC(0-30 h) GM): 4460 ng·h/mL | AUC(0-t) (po, 75 mg, healthy adults (Parts A,B), single oral 75 mg, fasted, read-out: AUC(0-72 h) GM): 7880 ng·h/mL | AUC(0-inf) (po, 75 mg, healthy adults (Parts A,B), single oral 75 mg, fasted, read-out: AUC(0-inf) GM): 9880 ng·h/mL | AUC(0-t) (po, 75 mg, healthy adults (Parts A,B), single oral 75 mg, fasted, read-out: AUC(0-t) GM): 9520 ng·h/mL | Cmax (po, 75 mg, healthy adults (Parts A,B), single oral 75 mg, fasted, read-out: Cmax GM): 222 ng/mL | Vd/F (po, 75 mg, healthy adults (Parts A,B), single oral 75 mg, fasted, read-out: Vz/F GM): 308 L | half-life (po, 75 mg, healthy adults (Parts A,B), single oral 75 mg, fasted, read-out: t1/2 Mean (converted)): 28.9 h | Tmax (po, 75 mg, healthy adults (Parts A,B), single oral 75 mg, fasted, read-out: tmax Median): 3 h | AUC(0-inf) (po, 100 mg, Elderly, single oral 100 mg, read-out: AUC(0-inf) Geometric LS Means Test): 21300 ng·h/mL | Cmax (po, 100 mg, Elderly, single oral 100 mg, read-out: Cmax Geometric LS Means Test): 543 ng/mL | AUC(0-inf) (po, 100 mg, Younger Adults (Parts A,B), single oral 100 mg, read-out: AUC(0-inf) Geometric LS Means Reference): 15000 ng·h/mL | Cmax (po, 100 mg, Younger Adults (Parts A,B), single oral 100 mg, read-out: Cmax Geometric LS Means Reference): 373 ng/mL | AUC(0-inf) (po, 100 mg, Japanese Subjects (Part D), single oral 100 mg, read-out: AUC(0-inf) GM): 14200 ng·h/mL
